Assay results as given in PubChem BioAssay (NCI).
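96-well plates; 48 h exposure; 5 concentrations. Endpoints by linear interpolation between flanking doses. Not reached: highest tested concentration assigned. TGI denotes the concentration required for complete inhibition of growth.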

How the values were obtained:
Experiment in all cases: DTP human tumour cell line panel, 48 h
A498 renal = system: A498 renal
A549 NSCLC = system: A549 NSCLC
CCRF-CEM leukemia = system: CCRF-CEM leukemia
DMS 273 small cell lung = system: DMS 273 small cell lung
EKVX NSCLC = system: EKVX NSCLC
HL-60(TB) leukemia = system: HL-60(TB) leukemia
HOP-62 NSCLC = system: HOP-62 NSCLC
HOP-92 NSCLC = system: HOP-92 NSCLC
HT29 colon = system: HT29 colon
IGROV1 ovarian = system: IGROV1 ovarian
K-562 leukemia = system: K-562 leukemia
KM12 colon = system: KM12 colon
M14 melanoma = system: M14 melanoma
M19-MEL melanoma = system: M19-MEL melanoma
MOLT-4 leukemia = system: MOLT-4 leukemia
NCI-H226 lung = system: NCI-H226 lung
NCI-H23 lung = system: NCI-H23 lung
NCI-H460 lung = system: NCI-H460 lung
NCI-H522 lung = system: NCI-H522 lung
OVCAR-5 ovarian = system: OVCAR-5 ovarian
RXF 393 renal = system: RXF 393 renal
SF-268 CNS = system: SF-268 CNS
SK-MEL-28 melanoma = system: SK-MEL-28 melanoma
SK-OV-3 ovarian = system: SK-OV-3 ovarian
SNB-19 CNS = system: SNB-19 CNS
SNB-78 CNS = system: SNB-78 CNS
SR leukemia = system: SR leukemia
TK-10 renal = system: TK-10 renal
U251 CNS = system: U251 CNS
UACC-62 melanoma = system: UACC-62 melanoma
UO-31 renal = system: UO-31 renal
COLO 205 colon = system: COLO 205 colon
DMS 114 small cell lung = system: DMS 114 small cell lung
HCT-116 colon = system: HCT-116 colon
KM20L2 colon = system: KM20L2 colon
LXFL 529 NSCLC = system: LXFL 529 NSCLC
MALME-3M melanoma = system: MALME-3M melanoma
OVCAR-3 ovarian = system: OVCAR-3 ovarian
OVCAR-4 ovarian = system: OVCAR-4 ovarian
OVCAR-8 ovarian = system: OVCAR-8 ovarian
RPMI-8226 leukemia = system: RPMI-8226 leukemia
SF-295 CNS = system: SF-295 CNS
SF-539 CNS = system: SF-539 CNS
SK-MEL-2 melanoma = system: SK-MEL-2 melanoma
SK-MEL-5 melanoma = system: SK-MEL-5 melanoma
SN12C renal = system: SN12C renal
SNB-75 CNS = system: SNB-75 CNS
SW-620 colon = system: SW-620 colon
UACC-257 melanoma = system: UACC-257 melanoma
786-0 renal = system: 786-0 renal
ACHN renal = system: ACHN renal

Measured: TGI

N#CC1Sc2ccccc2-n2cccc21 (centres undefined)
78.2 µM: SF-268 CNS
87.6 µM: NCI-H226 lung
67.3 µM: RXF 393 renal
93.3 µM: UO-31 renal
99.2 µM: UACC-62 melanoma
61.6 µM: HL-60(TB) leukemia
95.5 µM: K-562 leukemia
not listed: COLO 205 colon | DMS 114 small cell lung | HCT-116 colon | KM20L2 colon | LXFL 529 NSCLC | MALME-3M melanoma | OVCAR-3 ovarian | OVCAR-4 ovarian | OVCAR-8 ovarian | RPMI-8226 leukemia | SF-295 CNS | SF-539 CNS | SK-MEL-2 melanoma | SK-MEL-5 melanoma | SN12C renal | SNB-75 CNS | SW-620 colon | UACC-257 melanoma | 786-0 renal | ACHN renal
> 100 µM: all other assays above

COc1ccc(C2C(Cl)C(=O)N2NC(=O)c2ccccc2O)cc1 (centres undefined)
not listed: A498 renal | DMS 273 small cell lung | NCI-H226 lung | OVCAR-5 ovarian | SNB-78 CNS | 786-0 renal | ACHN renal
> 100 µM: all other assays above

COc1ccc2c(c1)CC[C@@H]1C2CC[C@]2(C)C(=O)N(CCN3CCCC3)C(=O)CC12 (some centres undefined)
35.7 µM: M19-MEL melanoma
81.8 µM: HOP-92 NSCLC
49.9 µM: UO-31 renal
34.8 µM: HT29 colon
35.8 µM: 786-0 renal
35.1 µM: UACC-62 melanoma
87.1 µM: SNB-75 CNS
89.6 µM: LXFL 529 NSCLC
31.1 µM: M14 melanoma
31.5 µM: MALME-3M melanoma
34.4 µM: RPMI-8226 leukemia
55 µM: KM20L2 colon
42.1 µM: SF-295 CNS
86.7 µM: RXF 393 renal
57.7 µM: MOLT-4 leukemia
37.6 µM: COLO 205 colon
52.7 µM: NCI-H522 lung
66.6 µM: HOP-62 NSCLC
45.2 µM: HL-60(TB) leukemia
38.7 µM: UACC-257 melanoma
32.2 µM: SK-MEL-2 melanoma
70.1 µM: K-562 leukemia
76.4 µM: DMS 114 small cell lung
38.9 µM: SK-MEL-28 melanoma
not listed: A549 NSCLC | CCRF-CEM leukemia | DMS 273 small cell lung | EKVX NSCLC | NCI-H226 lung | TK-10 renal | HCT-116 colon | OVCAR-8 ovarian | SF-539 CNS | SK-MEL-5 melanoma | SN12C renal | SW-620 colon
> 100 µM: all other assays above
